Assay results from ChEMBL document CHEMBL4145521, “Regioselective synthesis of 3,4-diaryl-5-unsubstituted isoxazoles, analogues of natural cytostatic combretastatin A4” (Eur J Med Chem, 2018).

Experiments:
Format in all cases: functional
NCI-H226 = experiment: Cytotoxicity against human NCI-H226 cells assessed as cell growth at 0.1 uM incubated for 48 hrs by sulforhodamine B assay relative to control; conditions: NCI-H226, 48 h, read-out: Activity
DU-145 = experiment: Cytotoxicity against human DU145 cells incubated for 48 hrs by sulforhodamine B assay; conditions: DU-145, 48 h
M14 = experiment: Cytotoxicity against human M14 cells incubated for 48 hrs by sulforhodamine B assay; conditions: M14, 48 h
SNB-75 [1] = experiment: Cytotoxicity against human SNB75 cells assessed as cell growth at 0.01 uM incubated for 48 hrs by sulforhodamine B assay relative to control; conditions: SNB-75, 48 h, read-out: Activity
MDA-MB-468 = experiment: Cytotoxicity against human MDA-MB-468 cells assessed as cell growth at 0.01 uM incubated for 48 hrs by sulforhodamine B assay relative to control; conditions: MDA-MB-468, 48 h, read-out: Activity
NCI-H23 [2] = experiment: Cytotoxicity against human NCI-H23 cells assessed as cell growth at 100 uM incubated for 48 hrs by sulforhodamine B assay relative to control; conditions: NCI-H23, 48 h, read-out: Activity
MDA-MB-231 = experiment: Cytotoxicity against human MDA-MB-231 cells assessed as cell growth at 0.01 uM incubated for 48 hrs by sulforhodamine B assay relative to control; conditions: MDA-MB-231, 48 h, read-out: Activity
T47D = experiment: Cytotoxicity against human T47D cells assessed as cell growth at 0.1 uM incubated for 48 hrs by sulforhodamine B assay relative to control; conditions: read-out: Activity
KM12 = experiment: Cytotoxicity against human KM12 cells assessed as cell growth at 0.1 uM incubated for 48 hrs by sulforhodamine B assay relative to control; conditions: KM12, 48 h, read-out: Activity
EKVX = experiment: Cytotoxicity against human EKVX cells assessed as cell growth at 100 uM incubated for 48 hrs by sulforhodamine B assay relative to control; conditions: read-out: Activity
PC-3 [3] = experiment: Cytotoxicity against human PC3 cells assessed as cell growth at 0.1 uM incubated for 48 hrs by sulforhodamine B assay relative to control; conditions: PC-3, 48 h, read-out: Activity
SF-295 = experiment: Cytotoxicity against human SF295 cells assessed as cell growth at 0.1 uM incubated for 48 hrs by sulforhodamine B assay relative to control; conditions: SF-295, 48 h, read-out: Activity
PC-3 [4] = experiment: Cytotoxicity against human PC3 cells assessed as cell growth at 10 uM incubated for 48 hrs by sulforhodamine B assay relative to control; conditions: PC-3, 48 h, read-out: Activity
A498 = experiment: Cytotoxicity against human A498 cells incubated for 48 hrs by sulforhodamine B assay; conditions: A498, 48 h
BT-549 = experiment: Cytotoxicity against human BT549 cells incubated for 48 hrs by sulforhodamine B assay; conditions: BT-549, 48 h
NCI-H23 [5] = experiment: Cytotoxicity against human NCI-H23 cells incubated for 48 hrs by sulforhodamine B assay; conditions: NCI-H23, 48 h
MCF7 = experiment: Cytotoxicity against human MCF7 cells assessed as cell growth at 0.01 uM incubated for 48 hrs by sulforhodamine B assay relative to control; conditions: MCF7, 48 h, read-out: Activity
RXF 393 = experiment: Cytotoxicity against human RXF393 cells assessed as cell growth at 10 uM incubated for 48 hrs by sulforhodamine B assay relative to control; conditions: RXF 393, 48 h, read-out: Activity
SF-539 = experiment: Cytotoxicity against human SF539 cells assessed as cell growth at 100 uM incubated for 48 hrs by sulforhodamine B assay relative to control; conditions: SF-539, 48 h, read-out: Activity
COLO 205 = experiment: Cytotoxicity against human COLO205 cells incubated for 48 hrs by sulforhodamine B assay; conditions: COLO 205, 48 h
Malme-3M = experiment: Cytotoxicity against human MALME-3M cells assessed as cell growth at 10 uM incubated for 48 hrs by sulforhodamine B assay relative to control; conditions: read-out: Activity
HCT-116 = experiment: Cytotoxicity against human HCT116 cells assessed as cell growth at 1 uM incubated for 48 hrs by sulforhodamine B assay relative to control; conditions: HCT-116, 48 h, read-out: Activity
HCC 2998 = experiment: Cytotoxicity against human HCC2998 cells assessed as cell growth at 0.01 uM incubated for 48 hrs by sulforhodamine B assay relative to control; conditions: HCC 2998, 48 h, read-out: Activity
CAKI-1 = experiment: Cytotoxicity against human Caki1 cells incubated for 48 hrs by sulforhodamine B assay; conditions: CAKI-1, 48 h
HL-60(TB) = experiment: Cytotoxicity against human HL-60(TB) cells incubated for 48 hrs by sulforhodamine B assay; conditions: HL-60, 48 h
TK-10 = experiment: Cytotoxicity against human TK10 cells assessed as cell growth at 0.01 uM incubated for 48 hrs by sulforhodamine B assay relative to control; conditions: TK-10, 48 h, read-out: Activity
NCI-H23 [6] = experiment: Cytotoxicity against human NCI-H23 cells assessed as cell growth at 0.01 uM incubated for 48 hrs by sulforhodamine B assay relative to control; conditions: NCI-H23, 48 h, read-out: Activity
MOLT-4 = experiment: Cytotoxicity against human MOLT4 cells assessed as cell growth at 0.1 uM incubated for 48 hrs by sulforhodamine B assay relative to control; conditions: MOLT-4, 48 h, read-out: Activity
SNB-75 [7] = experiment: Cytotoxicity against human SNB75 cells assessed as cell growth at 1 uM incubated for 48 hrs by sulforhodamine B assay relative to control; conditions: SNB-75, 48 h, read-out: Activity
[8] = read-out: LC50 (the source's name)
[9] = read-out: pLC50 (the source's name) (converted)

COc1ccc(-c2nocc2-c2cc(OC)c(OC)c(OC)c2)cc1
growth at 0.1 µM (NCI-H226): 90%
GI50 (DU-145; read-out: GI50): 244 nM
CC50 (DU-145; [8]): > 100000 nM
TGI (DU-145; read-out: TGI): > 100000 nM
GI50 (DU-145; read-out: pGI50 (converted)): 245 nM
CC50 (DU-145; [9]): > 100000 nM
TGI (DU-145; read-out: pTGI): > 100000 nM
GI50 (M14; read-out: GI50): 66.8 nM
CC50 (M14; [8]): > 100000 nM
TGI (M14; read-out: TGI): 53900 nM
GI50 (M14; read-out: pGI50 (converted)): 66.1 nM
CC50 (M14; [9]): > 100000 nM
TGI (M14; read-out: pTGI (converted)): 53700 nM
growth at 0.01 µM (SNB-75 [1]): 74%
growth at 0.01 µM (MDA-MB-468): 94%
growth at 100 µM (NCI-H23 [2]): -3%
growth at 0.01 µM (MDA-MB-231): 98%
growth at 0.1 µM (T47D): 43%
growth at 0.1 µM (KM12): 26%
growth at 100 µM (EKVX): 7%
growth at 0.1 µM (PC-3 [3]): 40%
growth at 0.1 µM (SF-295): 36%
growth at 10 µM (PC-3 [4]): 22%
GI50 (A498; read-out: GI50): 33.6 nM
LC50 (A498; read-out: LC50): > 100000 nM
TGI (A498; read-out: TGI): 816 nM
GI50 (A498; read-out: pGI50 (converted)): 33.9 nM
LC50 (A498; read-out: pLC50 (converted)): > 100000 nM
TGI (A498; read-out: pTGI (converted)): 813 nM
GI50 (BT-549; read-out: GI50): 176 nM
CC50 (BT-549; [8]): > 100000 nM
TGI (BT-549; read-out: TGI): 18900 nM
GI50 (BT-549; read-out: pGI50 (converted)): 178 nM
CC50 (BT-549; [9]): > 100000 nM
TGI (BT-549; read-out: pTGI (converted)): 19100 nM
GI50 (NCI-H23 [5]; read-out: GI50): 283 nM
CC50 (NCI-H23 [5]; [8]): > 100000 nM
TGI (NCI-H23 [5]; read-out: TGI): 74900 nM
GI50 (NCI-H23 [5]; read-out: pGI50 (converted)): 282 nM
CC50 (NCI-H23 [5]; [9]): > 100000 nM
TGI (NCI-H23 [5]; read-out: pTGI (converted)): 74100 nM
growth at 0.01 µM (MCF7): 86%
growth at 10 µM (RXF 393): 1%
growth at 100 µM (SF-539): -15%
GI50 (COLO 205; read-out: GI50): 58.1 nM
CC50 (COLO 205; [8]): > 100000 nM
TGI (COLO 205; read-out: TGI): 1910 nM
GI50 (COLO 205; read-out: pGI50 (converted)): 57.5 nM
CC50 (COLO 205; [9]): > 100000 nM
TGI (COLO 205; read-out: pTGI (converted)): 1910 nM
growth at 10 µM (Malme-3M): 60%
growth at 1 µM (HCT-116): 14%
growth at 0.01 µM (HCC 2998): 97%
GI50 (CAKI-1; read-out: GI50): 642 nM
LC50 (CAKI-1; read-out: LC50): > 100000 nM
TGI (CAKI-1; read-out: TGI): > 100000 nM
GI50 (CAKI-1; read-out: pGI50 (converted)): 646 nM
LC50 (CAKI-1; read-out: pLC50 (converted)): > 100000 nM
TGI (CAKI-1; read-out: pTGI): > 100000 nM
GI50 (HL-60(TB); read-out: GI50): 48.8 nM
CC50 (HL-60(TB); [8]): > 100000 nM
TGI (HL-60(TB); read-out: TGI): 391 nM
GI50 (HL-60(TB); read-out: pGI50 (converted)): 49 nM
CC50 (HL-60(TB); [9]): > 100000 nM
TGI (HL-60(TB); read-out: pTGI (converted)): 389 nM
growth at 0.01 µM (TK-10): 90%
growth at 0.01 µM (NCI-H23 [6]): 94%
growth at 0.1 µM (MOLT-4): 85%
growth at 1 µM (SNB-75 [7]): 4%
